# Reference: US20220064167A1, “IMIDAZO-PYRAZOLE CARBOXAMIDE DERIVATIVES AS ANTICANCER AGENTS AND THE SYNTHESIS THEREOF” (AVIDIN KFT., priority 2018, published 2022)
# Tested on: 4T1 mouse cells inoculated into the mammary gland of BalbC mouse
# Assay: mammary carcinoma mouse model (FIG. 6)
# Format: in vivo
# Settings: 3 mg/kg intravenously, every other day from day 16, 6 occasions, compared to vehicle
# Experimental: The effect on mammary carcinoma was studied on BalbC mouse model inoculated subcutaneously into the mammary gland with 4T1 mouse cells (ATCC) (100,000 cells/animal). Two groups were formed from randomly selected mice, with 8 animals in both groups. Group 1: control group, it was only administered a carrier (0.1 mL, 0.9% NaCl solution) intravenously; group 2: group treated with compound 83, it was administered 3 mg/kg of compound 83 in PEG100:Solutol:PBS (1:4:15 vol ratio), intravenously after the tumor reached 300 mm^3 (day 16). The treatments were performed from the sixteenth day, every other day, for a total of 6 occasions. Starting from the 16th day on every day the size of the increasing tumours was determined in the case of each animal, and the group average was represented per group (FIG. 6). The standard deviation was determined in SEM. It can be seen that the treatment with compound 83 reduced the size of the increasing mammary tumour.
smiles,measurement,value
"CC(C)(C)Nc1c(C(C)(C)C)[nH]c2c(C(=O)Nc3ccc(N)cc3)cnn12 [Example 83, N-(4-Aminophenyl)-2-(tert-butyl)-3-(tert-butylamino)-1H-imidazo[1,2-b]pyrazole-7-carboxamide]",size of the increasing mammary tumour,reduced
